These results are taken from patent US9139609B2, “C-4″ position substituted macrolide derivative” (priority 2011, dated 2015).

Common to all, as to type: cell-based
The subject of test [1] is Streptococcus pneumoniae ATCC700904. In words: In vitro antibacterial activity, microbroth dilution method (CLSI method), test bacterium C (erythromycin resistant). The settings on record: read-out: MIC (minimum inhibitory concentration), test bacterium C. As to the method: (§1) In vitro antibacterial activities of the compounds of the present invention against various test bacteria were measured according to the microbroth dilution method (CLSI method). Among them, the bacteria C, D and E are erythromycin resistant bacteria. The MIC values (minimum inhibitory concentration, μg/ml) for the test bacteria A and B are exemplified in Table 22.
Background: Dilution methods test growth across graded concentrations, often in twofold steps.

The subject of test [2] is Streptococcus pyogenes M808. In words: In vitro antibacterial activity, microbroth dilution method (CLSI method), test bacterium D (erythromycin resistant). The note with it: read-out: MIC (minimum inhibitory concentration), test bacterium D. As to the method: as §1
Test [3] relates to Mycoplasma pneumoniae MSC04933. In words: In vitro antibacterial activity, microbroth dilution method (CLSI method), test bacterium E (erythromycin resistant). The settings on record: read-out: MIC (minimum inhibitory concentration), test bacterium E. The procedure: as §1

Converted amounts (≈) assume the structure as drawn.

On to `CC[C@H]1OC(=O)[C@H](C)[C@@H](O[C@H]2C[C@@](C)(OC)[C@@](O)(CN(C)CCN(C)C(C)(C)c3ccccc3OC)[C@H](C)O2)[C@H](C)[C@@H](O[C@@H]2O[C@H](C)C[C@H](N(C)C)[C@H]2O)[C@@](C)(OC)C[C@@H](C)C(=O)[C@H](C)[C@H]2C(C#N)C(=O)O[C@@]21C` (stereo partly drawn) [Example 363], for which the MIC is 0.12 to 0.25 µg/mL (≈ 0.115 to 0.239 µM) in test [1], ≤ 2 µg/mL in test [2] and ≤ 0.25 µg/mL in test [3].
The matching figures for `CC[C@H]1OC(=O)[C@H](C)[C@@H](O[C@H]2C[C@@](C)(OC)[C@@](O)(CN(C)CCN(C)C(C)(C)c3ccccc3OC)[C@H](C)O2)[C@H](C)[C@@H](O[C@@H]2O[C@H](C)C[C@H](N(C)C)[C@H]2O)[C@@](C)(OC)C[C@@H](C)C2=NCCN3C(=O)O[C@@]1(C)[C@H]3[C@H]2C` [Example 338]: 0.12 to 0.25 µg/mL (≈ 0.115 to 0.239 µM), ≤ 2 µg/mL and ≤ 0.25 µg/mL.
The matching figures for `CC[C@H]1OC(=O)[C@H](C)[C@@H](O[C@H]2C[C@@](C)(OC)[C@@](O)(CN(C)CCN(C)C(C)(C)c3ccccc3OC)[C@H](C)O2)[C@H](C)[C@@H](O[C@@H]2O[C@H](C)C[C@H](N(C)C)[C@H]2O)[C@@](C)(OC(N)=O)C[C@@H](C)C(=O)[C@H](C)[C@H]2NC(=O)O[C@@]21C` [Example 342]: 0.12 to 0.25 µg/mL (≈ 0.114 to 0.238 µM), ≤ 2 µg/mL and ≤ 0.25 µg/mL.
On to `CC[C@H]1OC(=O)[C@H](C)[C@@H](O[C@H]2C[C@@](C)(OC)[C@@](O)(CN(C)CCN(C)C)[C@H](C)O2)[C@H](C)[C@@H](O[C@@H]2O[C@H](C)C[C@H](N(C)C)[C@H]2O)[C@@](C)(OC)C[C@@H](C)C(=O)[C@H](C)[C@H]2C(SCCCn3cnc4c(N)ncnc43)C(=O)O[C@@]21C` (stereo partly drawn) [Example 364], for which the MIC was ≤ 0.06 µg/mL in test [1], ≤ 2 µg/mL in test [2] and ≤ 0.25 µg/mL in test [3].
The matching figures for `CC[C@H]1OC(=O)[C@H](C)[C@@H](O[C@H]2C[C@@](C)(OC)[C@@](O)(CN(C)CCN(C(C)C)C(C)C)[C@H](C)O2)[C@H](C)[C@@H](O[C@@H]2O[C@H](C)C[C@H](N(C)C)[C@H]2O)[C@@](C)(OC)C[C@@H](C)C(=O)[C@H](C)[C@H]2N(CCNS(C)(=O)=O)C(=O)O[C@]12C` [Example 404]: 0.12 to 0.25 µg/mL (≈ 0.113 to 0.235 µM), ≤ 2 µg/mL and ≤ 0.25 µg/mL.
Consider `CC[C@H]1OC(=O)[C@H](C)[C@@H](O[C@H]2C[C@@](C)(OC)[C@@](O)(CN(C)CCN(CC)CC)[C@H](C)O2)[C@H](C)[C@@H](O[C@@H]2O[C@H](C)C[C@H](N(C)C)[C@H]2O)[C@@](C)(OC)C[C@@H](C)C(=NO)[C@H](C)[C@H]2N(CCNS(C)(=O)=O)C(=O)O[C@]12C` [Example 334], for which the values for the MIC in test [1], in test [2] and in test [3] were 0.12 to 0.25 µg/mL (≈ 0.114 to 0.238 µM), 4 to 8 µg/mL (≈ 3.8 to 7.61 µM) and ≤ 0.25 µg/mL, respectively.
The matching figures for `CC[C@H]1OC(=O)[C@H](C)[C@@H](O[C@H]2C[C@@](C)(OC)[C@@](O)(CN(C)CCN(C)C(C)(C)c3ccccc3OC)[C@H](C)O2)[C@H](C)[C@@H](O[C@@H]2O[C@H](C)C[C@H](N(C)C)[C@H]2O)[C@@]2(C)C[C@@H](C)C3(NCCN4C(=O)O[C@@]1(C)[C@H]4[C@H]3C)O2` [Example 341]: 0.12 to 0.25 µg/mL (≈ 0.116 to 0.242 µM), ≤ 2 µg/mL and ≤ 0.25 µg/mL.
